Measured values from patent publication US20090215710A1, “CARBOHYDRATE BASED TOLL-LIKE RECEPTOR (TLR) ANTAGONISTS” (RELIANCE LIFE SCIENCES PVT. LTD., priority 2007, published 2009).

Experiments:
[1] = tested on: TIRAP and MyD88; experiment: Protein levels of TIRAP and MyD88 in LPS stimulated THP-1 cells (immunoblot); type: cell-based, human; details: THP-1, LPS 250 ng/ml, 1 hr pre-treatment
Experimental: Further confirmation was obtained at the protein level. Serum-starved THP-1 cells were stimulated with LPS (250 ng/ml) for the indicated time in the presence and absence of RSCL-0409. RSCL-0409 treatment was 1 hr prior to LPS treatment. Immunoblotting of total protein was carried out as before to determine protein levels of TIRAP and MyD88.

[2] = tested on: Balb/c mice; experiment: LPS induced TNF-α release in Balb/c mice, pre-treatment; type: in vivo; details: 1 hr post LPS
Experimental: The present invention has studied the ability of RSCL-0409 to exert protection against inflammatory agents in a mice (Balb/c) model. Balb/c (5-6 weeks) mice were injected with LPS (225 μg) intraperitoneally with and without pretreatment of three concentrations of RSCL-0409 (10 mg/kg, 20 mg/kg and 40 mg/kg). The compound was injected intraperitoneally 30 min before LPS treatment. The mice were monitored for 1 hr post LPS treatment. RSCL-0409 injected alone served as negative control. Blood collection was done retro-orbitally under anesthesia, 1 hr post LPS injection. Serum collected after cells were allowed to settle was analysed for TNF-α secretion.

Question: What does the source list for `COc1ccc(OC2OC3COC(c4ccccc4)OC3C(OC3OC(COC(=O)CCC(C)=O)C(OC(=O)CCl)C(OC(C)=O)C3OC(C)=O)C2NC(=O)C(Cl)(Cl)Cl)cc1` [RSCL-0409, p-Methoxy phenyl-O-(2,3-di-O-acetyl-4-O-chloroacetyl-6-O-levulinoyl-β-D-glucopyranosyl)-(1-3)-2-deoxy-2-trichloroacetamido-4,6-O-benzylidene-α-D-glucopyranoside]?
Answer: protein levels of TIRAP and MyD88 [1]: Down regulation of TIRAP and also MyD88 at protein levels; reduction of serum TNF production ([2]; 10 mg/kg i.p. 30 min before LPS (225 μg i.p.)): ~53%; reduction of serum TNF production ([2]; 20 mg/kg i.p. 30 min before LPS (225 μg i.p.)): ~64%; reduction of serum TNF production ([2]; 40 mg/kg i.p. 30 min before LPS (225 μg i.p.)): ~67%
